# Laboratory results: article PMC8262356, “SLC26A6-selective inhibitor identified in a small-molecule screen blocks fluid absorption in small intestine” (JCI Insight, 2021)
# Legend:
# [1] = target: T1, slc26a4 (Mus musculus, UniProt Q9R155); assay: Selectivity: Cl-/I- exchange in FRT cells coexpressing YFP and slc26a4; format: cell-based; conditions: 25 μM
# T1 construct: expressed in transfected cells; host or cells: FRT cells coexpressing YFP
# T1 sequence (Q9R155 1-780): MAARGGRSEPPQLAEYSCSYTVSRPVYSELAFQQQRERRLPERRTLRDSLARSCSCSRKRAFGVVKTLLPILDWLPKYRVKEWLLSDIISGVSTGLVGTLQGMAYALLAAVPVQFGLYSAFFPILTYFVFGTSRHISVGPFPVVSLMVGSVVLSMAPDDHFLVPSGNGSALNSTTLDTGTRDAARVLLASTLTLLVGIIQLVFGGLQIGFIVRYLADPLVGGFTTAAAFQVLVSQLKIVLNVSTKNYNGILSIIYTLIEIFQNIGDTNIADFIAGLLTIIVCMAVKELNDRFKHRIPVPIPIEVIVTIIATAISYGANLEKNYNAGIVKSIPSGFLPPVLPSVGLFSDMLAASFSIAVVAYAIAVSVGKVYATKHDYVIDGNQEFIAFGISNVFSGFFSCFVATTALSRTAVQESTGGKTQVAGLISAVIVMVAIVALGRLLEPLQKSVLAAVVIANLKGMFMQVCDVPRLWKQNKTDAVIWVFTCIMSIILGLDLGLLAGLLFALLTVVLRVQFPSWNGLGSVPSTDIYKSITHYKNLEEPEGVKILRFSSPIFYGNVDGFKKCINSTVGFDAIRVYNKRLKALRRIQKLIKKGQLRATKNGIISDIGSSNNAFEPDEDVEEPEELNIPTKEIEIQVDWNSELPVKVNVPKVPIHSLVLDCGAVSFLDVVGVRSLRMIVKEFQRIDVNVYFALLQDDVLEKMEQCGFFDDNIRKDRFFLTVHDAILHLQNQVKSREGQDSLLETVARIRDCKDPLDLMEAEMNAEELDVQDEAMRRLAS
# Description: (§1) PAT1inh-B01 selectivity was studied by testing its effects on related SLC26A family anion transporters and the Cl^– channel TMEM16A. These measurements used a similar Cl^–/I^– exchange protocol, but FRT cells separately expressed each of the SLC26A family members or TMEM16A. […] PAT1inh-B01 selectivity was also tested by short-circuit current (Isc) in well-differentiated human bronchial epithelial (HBE) cells, which have a complex ion transport mechanism that includes cystic fibrosis transmembrane conductance regulator (CFTR), epithelial Na^+ channel (ENaC), and Ca^+2-activated chloride channels (CaCCs) ([13]). […] Potential PAT1inh-B01 cytotoxicity was studied in FRT cells.
# (§2) Figure 3 PAT1inh-B01 selectivity and cytotoxicity. […] Cl^–/I^– exchange or I^– influx measured in FRT cells coexpressing YFP and SLC26A isoforms or TMEM16A, with data shown for 25 μM PAT1inh-B01, DMSO vehicle control, and 500 μM niflumic acid (positive control for SLC26A transporters) or 10 μM TMinh-23 (positive control for TMEM16A). […] (C) (left) Short-circuit current (Isc) in well-differentiated HBE cells measured in the absence (top) and presence (bottom) of 25 μM PAT1inh-B01. […]
# (§3) YFP-based cellular assays of slc26a3, slc26a4, SLC26A9, and TMEM16A function were performed as described previously ([7]). […] The activities of ENaC, CFTR, and CaCC were determined using well-differentiated HBE cells as described previously ([13]). […]
# [2] = target: T2, CFTR (Homo sapiens, UniProt P13569); assay: Short-circuit current in well-differentiated HBE cells, forskolin/CFTRinh-172 response; format: cell-based; conditions: 25 μM pretreatment
# T2 construct: endogenous in cells; host or cells: well-differentiated human bronchial epithelial (HBE) cells at air-liquid interface
# Description: as §1, §2, §3
# T2 sequence (P13569 whole entry): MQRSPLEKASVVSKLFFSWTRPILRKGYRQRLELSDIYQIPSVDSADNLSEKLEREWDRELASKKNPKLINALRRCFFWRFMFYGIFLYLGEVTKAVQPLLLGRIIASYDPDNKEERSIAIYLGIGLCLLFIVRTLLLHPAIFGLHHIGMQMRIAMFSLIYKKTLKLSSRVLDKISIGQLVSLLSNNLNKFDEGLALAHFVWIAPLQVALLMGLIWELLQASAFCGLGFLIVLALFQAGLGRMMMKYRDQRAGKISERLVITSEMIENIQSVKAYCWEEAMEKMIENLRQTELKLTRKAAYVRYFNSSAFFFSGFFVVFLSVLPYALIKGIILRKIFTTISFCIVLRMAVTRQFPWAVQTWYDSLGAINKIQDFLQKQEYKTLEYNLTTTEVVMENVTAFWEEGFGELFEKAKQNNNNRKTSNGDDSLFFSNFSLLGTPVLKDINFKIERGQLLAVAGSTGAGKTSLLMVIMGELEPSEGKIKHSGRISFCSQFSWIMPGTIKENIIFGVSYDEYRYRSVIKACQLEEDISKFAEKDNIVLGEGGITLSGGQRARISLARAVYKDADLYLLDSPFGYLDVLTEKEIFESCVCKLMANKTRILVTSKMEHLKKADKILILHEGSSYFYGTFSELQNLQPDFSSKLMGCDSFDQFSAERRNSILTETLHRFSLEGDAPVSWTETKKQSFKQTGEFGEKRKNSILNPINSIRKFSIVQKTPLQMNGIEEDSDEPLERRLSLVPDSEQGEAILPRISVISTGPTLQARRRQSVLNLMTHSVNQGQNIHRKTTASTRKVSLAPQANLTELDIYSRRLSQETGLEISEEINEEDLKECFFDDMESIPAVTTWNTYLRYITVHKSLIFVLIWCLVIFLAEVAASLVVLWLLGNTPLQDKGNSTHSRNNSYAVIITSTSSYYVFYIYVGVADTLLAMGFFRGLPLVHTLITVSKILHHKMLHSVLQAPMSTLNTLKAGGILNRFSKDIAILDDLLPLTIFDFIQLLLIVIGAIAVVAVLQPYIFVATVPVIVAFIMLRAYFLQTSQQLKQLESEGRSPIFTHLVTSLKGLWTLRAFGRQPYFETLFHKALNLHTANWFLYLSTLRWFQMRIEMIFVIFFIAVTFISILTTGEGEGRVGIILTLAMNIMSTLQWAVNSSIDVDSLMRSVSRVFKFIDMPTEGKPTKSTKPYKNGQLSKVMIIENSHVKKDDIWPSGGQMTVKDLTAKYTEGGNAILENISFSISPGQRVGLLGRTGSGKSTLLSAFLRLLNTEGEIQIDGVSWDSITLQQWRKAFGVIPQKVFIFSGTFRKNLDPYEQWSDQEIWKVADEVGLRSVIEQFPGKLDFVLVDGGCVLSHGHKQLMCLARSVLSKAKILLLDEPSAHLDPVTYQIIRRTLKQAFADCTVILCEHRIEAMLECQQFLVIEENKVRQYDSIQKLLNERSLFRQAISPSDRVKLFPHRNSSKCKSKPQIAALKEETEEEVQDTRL
compound,measurement,setting,value
Cc1c(Br)c(C(F)(F)F)nn1CC(=O)N1CCc2nc3cc(-c4ccccc4)[nH]n3c(=O)c2C1 [PAT1inh-B01],inhibition of slc26a4,[1],did not significantly inhibit
same,effect on CFTR activity (Isc response to forskolin/CFTRinh-172),[2],no significant effect
